Laboratory results published in PubChem BioAssay AID330 (DTP/NCI, 2004).
Values joined by “and” are separate entries in the source; they are usually repeats but may differ in a detail not shown here. Equal entries are not always repeated. Inconclusive results and toxic doses are left out. The calls were made as follows: active = survival T/C of 150% or more; inactive = T/C below 125% in these data.

System: P388 leukemia ip, CD2F1 mice, survival T/C
Assay: NCI In Vivo Anticancer Drug Screen. Data for tumor model P388 Leukemia (intraperitoneal) in CD2F1 (CDF1) mice
Conditions: endpoint: median survival time, higher = longer survival
Outline: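 Mice carrying the transplanted tumor received test compound or vehicle. Survival was recorded in each group, and the value is the treated-group measurement divided by that of the vehicle-treated control group.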

[1] = dose: 50.0 mg/kg/injection, schedule: Q04DX003 (ip), vehicle: saline with Tween-80
[2] = dose: 50.0 mg/kg/injection, schedule: Q04DX003 (ip), vehicle: Klucel (hydroxypropylcellulose) (HPC)
[3] = dose: 100.0 mg/kg/injection, schedule: Q04DX003 (ip), vehicle: Klucel (hydroxypropylcellulose) (HPC)
[4] = dose: 200.0 mg/kg/injection, schedule: Q04DX003 (ip), vehicle: Klucel (hydroxypropylcellulose) (HPC)
[5] = dose: 50.0 mg/kg/injection, schedule: Q01DX005 (ip), vehicle: saline with Tween-80
[6] = dose: 50.0 mg/kg/injection, schedule: Q01DX005 (ip), vehicle: Klucel (hydroxypropylcellulose) (HPC)
[7] = dose: 100.0 mg/kg/injection, schedule: Q01DX005 (ip), vehicle: Klucel (hydroxypropylcellulose) (HPC)
[8] = dose: 200.0 mg/kg/injection, schedule: Q01DX005 (ip), vehicle: Klucel (hydroxypropylcellulose) (HPC)
[9] = dose: 100.0 mg/kg/injection, schedule: Q01DX005 (ip), vehicle: saline with Tween-80
[10] = dose: 50.0 mg/kg/injection, schedule: Q01DX009 (ip), vehicle: Klucel (hydroxypropylcellulose) (HPC)
[11] = dose: 100.0 mg/kg/injection, schedule: Q01DX009 (ip), vehicle: Klucel (hydroxypropylcellulose) (HPC)
[12] = dose: 25.0 mg/kg/injection, schedule: Q01DX005 (ip), vehicle: Klucel (hydroxypropylcellulose) (HPC)
[13] = dose: 50.0 mg/kg/injection, schedule: Q01DX005 (ip), vehicle: saline
[14] = dose: 100.0 mg/kg/injection, schedule: Q01DX005 (ip), vehicle: saline
[15] = dose: 200.0 mg/kg/injection, schedule: Q01DX005 (ip), vehicle: saline

Measured: T/C

O=c1[nH]cc(COCC(F)(F)F)c(=O)[nH]1
inactive: [1] 99 % of control | dose: 100.0 mg/kg/injection, schedule: Q04DX003 (ip), vehicle: saline with Tween-80 111 % of control

O=[N+]([O-])c1ccc(N=Nc2ccc(N(CCCl)CCCl)cc2)cc1
inactive: [2] 100 % of control | [3] 100 % of control | [4] 106 % of control

N#CCCN(CCC#N)c1ccc(/C=C2\C(=O)N(c3ccc(S(=O)(=O)O)cc3)N=C2C(=O)O)cc1
inactive: dose: 60.0 mg/kg/injection, schedule: Q01DX005 (ip), vehicle: saline with Tween-80 102 % of control | dose: 120.0 mg/kg/injection, schedule: Q01DX005 (ip), vehicle: saline with Tween-80 94 % of control | dose: 240.0 mg/kg/injection, schedule: Q01DX005 (ip), vehicle: saline with Tween-80 105 % of control

C/C=C/c1cc(OC)c2c(c1)[C@H](C)C(c1ccc3c(c1)OCO3)O2 (some centres not stated)
inactive: dose: 37.5 mg/kg/injection, schedule: Q01DX005 (ip), vehicle: Klucel (hydroxypropylcellulose) (HPC) 97 % of control | dose: 75.0 mg/kg/injection, schedule: Q01DX005 (ip), vehicle: Klucel (hydroxypropylcellulose) (HPC) 86 % of control | dose: 150.0 mg/kg/injection, schedule: Q01DX005 (ip), vehicle: Klucel (hydroxypropylcellulose) (HPC) 88 % of control | dose: 300.0 mg/kg/injection, schedule: Q01DX005 (ip), vehicle: Klucel (hydroxypropylcellulose) (HPC) 91 % of control

CCCCN(CCCC)CCCNc1c2c(nc3ccc(Cl)cc13)CCCC2
inactive: dose: 12.5 mg/kg/injection, schedule: Q01DX005 (ip), vehicle: saline with Tween-80 102 % of control | dose: 25.0 mg/kg/injection, schedule: Q01DX005 (ip), vehicle: saline with Tween-80 104 % of control | [5] 99 % of control and 101 % of control

Nc1n[nH]c2ccccc12
inactive: [6] 104 % of control and 107 % of control | [7] 105 % of control and 107 % of control | [8] 117 % of control

CC1=NN(C(=O)c2ccc(Cl)cc2)C(=O)C1N=Nc1ccc(S(=O)(=O)Nc2ccccn2)cc1 (configuration not stated)
inactive: [5] 102 % of control | [9] 94 % of control

CC1=CC(=O)N2CCN=C2S1
inactive: dose: 25.0 mg/kg/injection, schedule: Q04DX003 (ip), vehicle: Klucel (hydroxypropylcellulose) (HPC) 101 % of control | [2] 101 % of control | [3] 111 % of control and 98 % of control | [4] 111 % of control

COC(=O)C1NC(C)(C(=O)OC)C2C(=O)NC(=O)C12 (configuration not stated)
inactive: dose: 100.0 mg/kg/injection, schedule: Q04DX002 (ip), vehicle: Klucel (hydroxypropylcellulose) (HPC) 95 % of control | dose: 200.0 mg/kg/injection, schedule: Q04DX002 (ip), vehicle: Klucel (hydroxypropylcellulose) (HPC) 93 % of control | dose: 400.0 mg/kg/injection, schedule: Q04DX002 (ip), vehicle: Klucel (hydroxypropylcellulose) (HPC) 88 % of control

CC1Cn2c(nc3sc4c(c3c2=O)CCCC4)S1 (configuration not stated)
inactive: [10] 104 % of control | [11] 97 % of control | dose: 200.0 mg/kg/injection, schedule: Q01DX009 (ip), vehicle: Klucel (hydroxypropylcellulose) (HPC) 106 % of control

COc1cccc(/C=N/Nc2cc(C)nc3cc4c(cc23)OCO4)c1
inactive: dose: 6.25 mg/kg/injection, schedule: Q01DX005 (ip), vehicle: Klucel (hydroxypropylcellulose) (HPC) 104 % of control | dose: 12.5 mg/kg/injection, schedule: Q01DX005 (ip), vehicle: Klucel (hydroxypropylcellulose) (HPC) 97 % of control | [12] 100 % of control and 87 % of control | [6] 100 % of control and 102 % of control and 96 % of control | [7] 95 % of control

Nc1[nH]c(=O)ncc1C(=O)NC(CO)C(=O)O (configuration not stated)
inactive: dose: 6.25 mg/kg/injection, schedule: Q01DX009 (ip), vehicle: saline with Tween-80 90 % of control | dose: 12.5 mg/kg/injection, schedule: Q01DX009 (ip), vehicle: saline with Tween-80 100 % of control | dose: 25.0 mg/kg/injection, schedule: Q01DX009 (ip), vehicle: saline with Tween-80 95 % of control

c1ccc2c(c1)Sc1ccccc1N2CCCNC1=NCCO1
inactive: dose: 12.5 mg/kg/injection, schedule: Q04DX003 (ip), vehicle: saline with Tween-80 94 % of control | dose: 25.0 mg/kg/injection, schedule: Q04DX003 (ip), vehicle: saline with Tween-80 96 % of control | [1] 87 % of control | dose: 200.0 mg/kg/injection, schedule: Q04DX003 (ip), vehicle: saline with Tween-80 88 % of control | dose: 400.0 mg/kg/injection, schedule: Q04DX003 (ip), vehicle: saline with Tween-80 90 % of control

CCC1(C(=O)Sc2ccccc2)OC1c1ccccc1 (configuration not stated)
inactive: dose: 100.0 mg/kg/injection, schedule: Q01DX001 (ip), vehicle: Klucel (hydroxypropylcellulose) (HPC) 89 % of control | dose: 200.0 mg/kg/injection, schedule: Q01DX001 (ip), vehicle: Klucel (hydroxypropylcellulose) (HPC) 90 % of control | dose: 400.0 mg/kg/injection, schedule: Q01DX001 (ip), vehicle: Klucel (hydroxypropylcellulose) (HPC) 90 % of control

CC(C)(C)Oc1ccc(CC(NC(=O)OCC2c3ccccc3-c3ccccc32)C(=O)O)cc1 (configuration not stated)
inactive: [12] 107 % of control | [6] 107 % of control and 109 % of control | [7] 120 % of control | [8] 104 % of control and 120 % of control

Cn1c(=O)c2c(-c3ccc(Cl)cc3)onc2n(C)c1=O
inactive: [10] 96 % of control | [11] 100 % of control

CCOC(=O)Cn1nc2oc(=O)c(CCN3CCN(c4ccccc4OC)CC3)c(C)c2c1C
inactive: [12] 103 % of control | [6] 100 % of control | [7] 87 % of control | [8] 109 % of control

CC(O)C(N=C1N=CNC2=NC=NC12)C(=O)O (configuration not stated)
inactive: [5] 100 % of control | [9] 96 % of control | dose: 200.0 mg/kg/injection, schedule: Q01DX005 (ip), vehicle: saline with Tween-80 95 % of control

O=C1CCC2CCC1N2 (configuration not stated)
inactive: [13] 100 % of control | [14] 100 % of control | [15] 100 % of control

CCOC(=O)c1cccc([N+](=O)[O-])c1C(=O)OCCN(CC)CC
inactive: dose: 100.0 mg/kg/injection, schedule: Q04DX002 (ip), vehicle: saline with Tween-80 100 % of control | dose: 200.0 mg/kg/injection, schedule: Q04DX002 (ip), vehicle: saline with Tween-80 122 % of control

Cn1nc[n+](C)n1
inactive: dose: 12.5 mg/kg/injection, schedule: Q01DX009 (ip), vehicle: saline 91 % of control | dose: 25.0 mg/kg/injection, schedule: Q01DX009 (ip), vehicle: saline 91 % of control

C=C(C)CN1C(=O)C(C)S/C1=N/N=C1/SCC(=O)N1C (configuration not stated)
inactive: dose: 62.5 mg/kg/injection, schedule: Q01DX009 (ip), vehicle: saline 99 % of control | dose: 125.0 mg/kg/injection, schedule: Q01DX009 (ip), vehicle: saline 98 % of control

CSC(=O)NCCCN(C)C
inactive: [13] 106 % of control | [14] 107 % of control | [15] 104 % of control

OO.OO.[Cr+3].[NH-]CC[N-]CC[NH-]
inactive: dose: 50.0 mg/kg/injection, schedule: Q01DX009 (ip), vehicle: saline with Tween-80 94 % of control | dose: 100.0 mg/kg/injection, schedule: Q01DX009 (ip), vehicle: saline with Tween-80 99 % of control

CC(C)C1OC2(CCCC2)OCC1(C)C (configuration not stated)
inactive: [3] 103 % of control | [4] 103 % of control | dose: 400.0 mg/kg/injection, schedule: Q04DX003 (ip), vehicle: Klucel (hydroxypropylcellulose) (HPC) 100 % of control

CCCCC(CC)C1NC(C(=O)O)CS1 (configuration not stated)
inactive: dose: 50.0 mg/kg/injection, schedule: Q01DX009 (ip), vehicle: suspension in saline 96 % of control | dose: 100.0 mg/kg/injection, schedule: Q01DX009 (ip), vehicle: suspension in saline 87 % of control | dose: 200.0 mg/kg/injection, schedule: Q01DX009 (ip), vehicle: suspension in saline 96 % of control

CN(C)CC(CN(C)C)C(=O)c1ccc(Oc2ccc(Cl)c(Cl)c2)cc1
inactive: dose: 1.88 mg/kg/injection, schedule: Q01DX005 (ip), vehicle: saline 107 % of control | dose: 3.75 mg/kg/injection, schedule: Q01DX005 (ip), vehicle: saline 109 % of control | dose: 7.5 mg/kg/injection, schedule: Q01DX005 (ip), vehicle: saline 117 % of control

CCCCCCCCCCCCCCCCCC1=NC(C)CC(C)(C)O1 (configuration not stated)
inactive: dose: 100.0 mg/kg/injection, schedule: Q01DX009 (ip), vehicle: saline 95 % of control | dose: 200.0 mg/kg/injection, schedule: Q01DX009 (ip), vehicle: saline 104 % of control

Cn1c(C(=O)N/N=C\C2OC3OC(C)(C)OC3C3OC(C)(C)OC23)cc2cc(OCc3ccccc3)ccc21 (configuration not stated)
inactive: [6] 103 % of control | [7] 101 % of control | [8] 97 % of control
